Bounds are passed on as bounds.

In experiment [1] the test system is MDA231 breast adenocarcinoma cells. The experiment can be described thus: Flow cytometry of CD44/CD176 expression after 4-OHT treatment. The experiment is classed as cell-based, human. As to the method:
(§1) Cell suspensions of cell lines were prepared at 1×10^6 cells/100 μl. Cells were washed twice with PBS containing 2% BSA and incubated with primary antibodies at appropriate dilutions at 4° C. for 20 min, followed by anti-IgG-Cy3 (γ chain-specific) and anti-IgM-FITC (μ chain-specific) at appropriate concentrations at 4° C. for 20 min. Flow cytometry was performed with a FACScan (BD Biosciences, Franklin Lakes, N.J., USA). Collected data from 10,000 cells and WinMDI software were used in the analysis of FCS […]. For 4-hydroxytamoxifen treatment, MDA231, MDA435 and MCF-7 breast adenocarcinoma cell lines were exposed to 4-OHT (#H6278, Sigma) at a final concentration of 20 nM for 24 h. Then flow cytometry analysis was performed as described above.

For experiment [2], the system named is MDA435 breast adenocarcinoma cells. The description is as above. As to conditions: for change in percentage of CD44^+/CD176^+ cells after treatment: MDA435, 24 h, 20 nM. The experiment is classed as cell-based, human. As to the method:
as §1

Experiment [3] has as its system MCF-7 breast adenocarcinoma cells. Described as above. The experiment is classed as cell-based, human. The method, then:
as §1

Experiment [4] relates to MDA-MB-231 breast adenocarcinoma cells. The experiment can be described thus: Flow cytometry of CD44/CD173/CD174 expression after 4-OHT treatment. The experiment is classed as cell-based. As to conditions: MDA231, 20 nM for 24 h, P<0.05. As to the method:
(§2) Cell suspensions from established cell lines were prepared at a density of 1×10^6 cells/100 μl. They were washed twice with phosphate buffered saline (PBS) containing 2% BSA and incubated with primary antibodies at 4° for 20 min, followed by anti IgG-Cy3 (γ chain-specific) and anti IgM-FITC (μ chain-specific) in appropriate concentrations at 4° for 20 min. Flow cytometry was performed on a FACScan (BD Biosciences, Franklin Lakes, N.J., USA). Collected data from 10,000 cells and WinMDI software were used for the analysis of FACS […]. For 4-hydroxytamoxifen treatment, MDA-MB-231, MDA-MB-435 and MCF-7 breast adenocarcinoma cell lines were exposed to 4-OHT (#H6278, Sigma) at a final concentration of 20 nM for 24 h. Then flow cytometry analysis was performed as described above.
(In general: Flow cytometry measures light scatter and fluorescence of single cells or particles in a stream.)

Experiment [5] relates to MCF-7 breast adenocarcinoma cells. The description is as above. The class given is cell-based. As to conditions: MCF-7, 20 nM for 24 h, P>0.05. As to the method:
as §2

For experiment [6], the system named is MDA-MB-435 breast adenocarcinoma cells. Described as above. The experiment is classed as cell-based. As to conditions: MDA-MB-435, 20 nM for 24 h, P>0.05. The method, then: as §2
Where [7] appears, read: MDA231, 4-OHT 20 nM for 24 h, percent of the positive cells.
[8] abbreviates: MDA435, 4-OHT 20 nM for 24 h, percent of the positive cells.
Setting [9] is: MCF-7, 4-OHT 20 nM for 24 h, percent of the positive cells.

Regarding `CC/C(=C(\c1ccc(O)cc1)c1ccc(OCCN(C)C)cc1)c1ccccc1` [4-OHT, 4-hydroxytamoxifen], the “CD44^+/C176^+ cells” value in experiment [1] (setting [7]) is given as roughly 2%; in experiment [2] (setting [8]), roughly 12%; in experiment [3] (setting [9]), roughly 8%. The “CD44^+/CD176^− cells” value was roughly 1% in experiment [1] (setting [7]), roughly 50% in experiment [2] (setting [8]) and roughly 20% in experiment [3] (setting [9]). Besides, the “CD44^−/CD176^+ cells” value in experiment [1] (setting [7]) is recorded as roughly 13%; in experiment [2] (setting [8]) it was roughly 7%; in experiment [3] (setting [9]), roughly 8%. For the same compound, the results for the “CD44^−/CD176^− cells” value in experiment [1] (setting [7]), in experiment [2] (setting [8]) and in experiment [3] (setting [9]) were greater than 60%, roughly 31% and greater than 60%, respectively. Also, the “change in number of CD44^+/CD176^+ co-expressing cells after treatment” value in experiment [1] (MDA231, 24 h, 20 nM) is “no significantly increased number”; in experiment [3] (MCF-7, 24 h, 20 nM), “no significantly increased number”. The “change in percentage of CD44^+/CD176^+ cells after treatment” value in experiment [2] was “increased”; in experiment [2] (listed as tamoxifen), “enhanced”. Besides, the “change in percentage of CD44^+CD173^+ cells after treatment” value in experiment [4] is reported as “increased”; in experiment [5] it was “not”; in experiment [6] it was “not”. Moreover, the “change in percentage of CD44^+CD174^+ cells after treatment” value is “increased” in experiment [4], “not” in experiment [5] and “not” in experiment [6].
